According to ChEMBL document CHEMBL5465560, “Selectivity Literature for EUbOPEN Chemogenomic Library” (2024):

Key:
[1] = biological target: T1, Cyclin-G-associated kinase (Homo sapiens) (UniProt O14976); assay: Selectivity interaction (KinomeScan (DiscoverX)) EUB0000229b GAK; details: at 10 µM
T1 sequence (whole entry): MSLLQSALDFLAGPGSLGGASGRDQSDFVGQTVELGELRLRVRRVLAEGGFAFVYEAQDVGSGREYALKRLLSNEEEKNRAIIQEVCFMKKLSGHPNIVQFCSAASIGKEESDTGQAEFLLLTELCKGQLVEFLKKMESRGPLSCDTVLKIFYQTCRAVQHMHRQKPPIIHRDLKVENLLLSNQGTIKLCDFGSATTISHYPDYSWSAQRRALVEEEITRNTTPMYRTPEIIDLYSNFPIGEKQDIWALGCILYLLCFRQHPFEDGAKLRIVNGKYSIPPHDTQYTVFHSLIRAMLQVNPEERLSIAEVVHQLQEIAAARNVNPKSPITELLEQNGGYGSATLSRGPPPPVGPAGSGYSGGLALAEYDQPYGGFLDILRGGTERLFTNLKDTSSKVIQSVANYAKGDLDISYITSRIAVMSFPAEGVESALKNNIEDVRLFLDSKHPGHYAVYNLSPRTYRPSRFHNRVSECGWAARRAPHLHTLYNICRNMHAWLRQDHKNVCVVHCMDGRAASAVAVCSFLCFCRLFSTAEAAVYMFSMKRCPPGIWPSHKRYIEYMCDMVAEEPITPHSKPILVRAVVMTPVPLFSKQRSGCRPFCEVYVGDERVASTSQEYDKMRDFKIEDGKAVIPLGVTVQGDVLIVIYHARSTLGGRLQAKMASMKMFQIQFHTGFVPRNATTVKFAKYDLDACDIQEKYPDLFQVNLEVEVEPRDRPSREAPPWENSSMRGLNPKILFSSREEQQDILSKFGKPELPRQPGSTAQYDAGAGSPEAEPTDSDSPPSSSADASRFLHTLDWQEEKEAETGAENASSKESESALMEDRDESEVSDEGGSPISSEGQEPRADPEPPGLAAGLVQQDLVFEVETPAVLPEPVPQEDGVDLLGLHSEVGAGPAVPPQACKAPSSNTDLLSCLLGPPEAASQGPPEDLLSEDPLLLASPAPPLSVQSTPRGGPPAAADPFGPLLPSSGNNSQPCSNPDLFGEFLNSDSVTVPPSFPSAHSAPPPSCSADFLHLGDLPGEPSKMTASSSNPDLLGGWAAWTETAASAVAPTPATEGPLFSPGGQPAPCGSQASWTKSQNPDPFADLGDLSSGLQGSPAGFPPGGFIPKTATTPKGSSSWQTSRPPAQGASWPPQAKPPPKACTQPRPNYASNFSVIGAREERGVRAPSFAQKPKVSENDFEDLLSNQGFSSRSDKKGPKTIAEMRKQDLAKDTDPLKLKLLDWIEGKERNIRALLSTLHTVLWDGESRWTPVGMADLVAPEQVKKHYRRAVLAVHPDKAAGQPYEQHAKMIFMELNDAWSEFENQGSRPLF

[2] = biological target: Myosin light chain kinase, smooth muscle (Homo sapiens, UniProt Q15746); assay: Selectivity interaction (KinomeScan (DiscoverX)) EUB0001079a MYLK; details: at 1 µM
[3] = biological target: Cyclin-dependent kinase 2 (Homo sapiens, UniProt P24941); details: at 10 µM
[4] = biological target: Ephrin type-A receptor 4 (Homo sapiens, UniProt P54764); assay: Selectivity interaction (Kinase panel (Invitrogen)) EUB0000639a EPHA4; details: at 200 nM
[5] = biological target: Atypical kinase COQ8A, mitochondrial (Homo sapiens, UniProt Q8NI60); assay: Selectivity interaction (KinomeScan (DiscoverX)) EUB0000092b ADCK3; details: at 10 µM
[6] = biological target: Vascular endothelial growth factor receptor 3 (Homo sapiens, UniProt P35916)
[7] = biological target: Non-receptor tyrosine-protein kinase TYK2 (Homo sapiens, UniProt P29597); assay: Selectivity interaction (KinomeScan (DiscoverX)) EUB0000655a TYK2; details: at 10 µM
[8] = biological target: Eukaryotic translation initiation factor 2-alpha kinase 1 (Homo sapiens) (UniProt Q9BQI3); assay: Selectivity interaction (KinomeScan (DiscoverX)) EUB0000655a EIF2AK1; details: at 10 µM
[9] = biological target: Casein kinase II subunit alpha' (Homo sapiens) (UniProt P19784); assay: Selectivity interaction (KinomeScan (DiscoverX)) EUB0000655a CSNK2A2; details: at 10 µM
[10] = biological target: T2, G protein-coupled receptor kinase 3 (Homo sapiens) (UniProt P35626); assay: Selectivity interaction (Kinase panel (Z-LYTE Assay)) EUB0001632a ADRBK2; details: at 10 µM
T2 sequence (whole entry): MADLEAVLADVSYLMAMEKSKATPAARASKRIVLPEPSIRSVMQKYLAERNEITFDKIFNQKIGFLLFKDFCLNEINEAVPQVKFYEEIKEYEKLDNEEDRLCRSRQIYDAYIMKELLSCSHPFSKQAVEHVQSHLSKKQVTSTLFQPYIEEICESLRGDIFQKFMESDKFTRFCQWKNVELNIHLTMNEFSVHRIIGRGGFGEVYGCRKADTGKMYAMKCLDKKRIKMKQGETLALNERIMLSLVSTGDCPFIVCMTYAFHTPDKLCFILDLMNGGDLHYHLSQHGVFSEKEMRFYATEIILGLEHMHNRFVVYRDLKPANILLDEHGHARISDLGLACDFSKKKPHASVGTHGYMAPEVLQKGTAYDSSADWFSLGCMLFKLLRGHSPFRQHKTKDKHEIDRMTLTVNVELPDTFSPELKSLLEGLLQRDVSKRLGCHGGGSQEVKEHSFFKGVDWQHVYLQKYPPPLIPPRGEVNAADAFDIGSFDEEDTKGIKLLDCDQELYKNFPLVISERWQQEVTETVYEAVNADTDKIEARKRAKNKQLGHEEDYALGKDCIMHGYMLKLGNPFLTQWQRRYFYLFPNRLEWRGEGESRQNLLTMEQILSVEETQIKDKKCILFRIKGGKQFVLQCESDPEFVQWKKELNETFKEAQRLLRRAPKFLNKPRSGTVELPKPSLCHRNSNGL

Chain of Ephrin type-A receptor 4 (P54764 whole entry): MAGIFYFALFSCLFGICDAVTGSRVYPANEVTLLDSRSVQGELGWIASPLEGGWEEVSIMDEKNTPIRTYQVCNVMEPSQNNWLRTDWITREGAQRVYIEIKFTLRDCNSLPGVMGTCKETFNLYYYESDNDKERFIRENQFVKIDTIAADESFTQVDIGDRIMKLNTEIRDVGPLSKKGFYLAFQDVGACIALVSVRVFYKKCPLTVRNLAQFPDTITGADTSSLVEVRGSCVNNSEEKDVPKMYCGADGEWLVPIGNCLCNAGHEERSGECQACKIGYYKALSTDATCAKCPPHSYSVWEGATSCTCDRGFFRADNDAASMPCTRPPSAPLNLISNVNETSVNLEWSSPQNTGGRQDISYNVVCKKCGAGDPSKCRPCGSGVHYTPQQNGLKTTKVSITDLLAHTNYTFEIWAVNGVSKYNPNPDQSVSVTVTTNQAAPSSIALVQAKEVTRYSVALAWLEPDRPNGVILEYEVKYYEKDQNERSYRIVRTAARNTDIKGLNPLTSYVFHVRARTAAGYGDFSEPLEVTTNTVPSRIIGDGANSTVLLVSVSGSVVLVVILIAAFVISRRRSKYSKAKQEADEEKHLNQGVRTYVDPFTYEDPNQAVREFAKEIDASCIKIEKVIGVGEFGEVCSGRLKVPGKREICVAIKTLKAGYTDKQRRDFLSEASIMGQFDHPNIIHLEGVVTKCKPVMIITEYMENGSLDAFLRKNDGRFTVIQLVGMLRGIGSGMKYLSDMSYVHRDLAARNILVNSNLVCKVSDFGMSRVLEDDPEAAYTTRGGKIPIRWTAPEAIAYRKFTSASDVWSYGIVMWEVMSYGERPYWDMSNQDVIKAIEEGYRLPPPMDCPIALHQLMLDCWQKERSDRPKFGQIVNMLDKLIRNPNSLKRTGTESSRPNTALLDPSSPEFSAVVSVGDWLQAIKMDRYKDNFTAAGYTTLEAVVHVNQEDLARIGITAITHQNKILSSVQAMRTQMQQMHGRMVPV
Chain of Non-receptor tyrosine-protein kinase TYK2 (P29597 whole entry): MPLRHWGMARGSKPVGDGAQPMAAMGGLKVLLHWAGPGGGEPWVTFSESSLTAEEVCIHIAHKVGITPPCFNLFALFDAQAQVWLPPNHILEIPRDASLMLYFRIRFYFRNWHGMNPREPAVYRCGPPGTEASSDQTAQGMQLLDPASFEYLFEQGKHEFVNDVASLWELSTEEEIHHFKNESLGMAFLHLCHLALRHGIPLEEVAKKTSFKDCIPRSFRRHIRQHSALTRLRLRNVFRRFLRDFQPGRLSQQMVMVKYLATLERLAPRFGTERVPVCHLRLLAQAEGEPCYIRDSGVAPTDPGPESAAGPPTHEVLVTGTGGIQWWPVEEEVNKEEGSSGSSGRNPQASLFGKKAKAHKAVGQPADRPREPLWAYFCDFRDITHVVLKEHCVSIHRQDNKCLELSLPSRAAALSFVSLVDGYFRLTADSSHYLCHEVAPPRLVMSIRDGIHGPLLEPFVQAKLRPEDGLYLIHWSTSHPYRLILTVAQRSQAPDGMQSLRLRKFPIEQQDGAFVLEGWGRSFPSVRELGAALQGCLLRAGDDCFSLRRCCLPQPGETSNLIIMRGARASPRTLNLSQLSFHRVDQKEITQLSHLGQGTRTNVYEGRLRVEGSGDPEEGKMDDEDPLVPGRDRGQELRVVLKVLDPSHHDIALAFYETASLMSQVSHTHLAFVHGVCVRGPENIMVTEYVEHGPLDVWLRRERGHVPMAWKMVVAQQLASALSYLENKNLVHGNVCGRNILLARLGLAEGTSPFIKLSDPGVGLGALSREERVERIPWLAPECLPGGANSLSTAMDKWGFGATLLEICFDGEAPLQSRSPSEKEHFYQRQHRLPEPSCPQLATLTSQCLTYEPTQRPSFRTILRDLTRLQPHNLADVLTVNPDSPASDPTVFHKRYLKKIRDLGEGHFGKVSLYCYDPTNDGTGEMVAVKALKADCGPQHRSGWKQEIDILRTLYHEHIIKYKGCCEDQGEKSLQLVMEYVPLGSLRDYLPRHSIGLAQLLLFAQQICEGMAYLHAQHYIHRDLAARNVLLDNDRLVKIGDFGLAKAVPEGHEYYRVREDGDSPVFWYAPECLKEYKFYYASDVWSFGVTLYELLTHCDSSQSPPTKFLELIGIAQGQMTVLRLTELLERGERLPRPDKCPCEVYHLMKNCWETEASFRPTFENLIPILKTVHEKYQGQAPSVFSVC
Chain of Vascular endothelial growth factor receptor 3 (P35916 whole entry): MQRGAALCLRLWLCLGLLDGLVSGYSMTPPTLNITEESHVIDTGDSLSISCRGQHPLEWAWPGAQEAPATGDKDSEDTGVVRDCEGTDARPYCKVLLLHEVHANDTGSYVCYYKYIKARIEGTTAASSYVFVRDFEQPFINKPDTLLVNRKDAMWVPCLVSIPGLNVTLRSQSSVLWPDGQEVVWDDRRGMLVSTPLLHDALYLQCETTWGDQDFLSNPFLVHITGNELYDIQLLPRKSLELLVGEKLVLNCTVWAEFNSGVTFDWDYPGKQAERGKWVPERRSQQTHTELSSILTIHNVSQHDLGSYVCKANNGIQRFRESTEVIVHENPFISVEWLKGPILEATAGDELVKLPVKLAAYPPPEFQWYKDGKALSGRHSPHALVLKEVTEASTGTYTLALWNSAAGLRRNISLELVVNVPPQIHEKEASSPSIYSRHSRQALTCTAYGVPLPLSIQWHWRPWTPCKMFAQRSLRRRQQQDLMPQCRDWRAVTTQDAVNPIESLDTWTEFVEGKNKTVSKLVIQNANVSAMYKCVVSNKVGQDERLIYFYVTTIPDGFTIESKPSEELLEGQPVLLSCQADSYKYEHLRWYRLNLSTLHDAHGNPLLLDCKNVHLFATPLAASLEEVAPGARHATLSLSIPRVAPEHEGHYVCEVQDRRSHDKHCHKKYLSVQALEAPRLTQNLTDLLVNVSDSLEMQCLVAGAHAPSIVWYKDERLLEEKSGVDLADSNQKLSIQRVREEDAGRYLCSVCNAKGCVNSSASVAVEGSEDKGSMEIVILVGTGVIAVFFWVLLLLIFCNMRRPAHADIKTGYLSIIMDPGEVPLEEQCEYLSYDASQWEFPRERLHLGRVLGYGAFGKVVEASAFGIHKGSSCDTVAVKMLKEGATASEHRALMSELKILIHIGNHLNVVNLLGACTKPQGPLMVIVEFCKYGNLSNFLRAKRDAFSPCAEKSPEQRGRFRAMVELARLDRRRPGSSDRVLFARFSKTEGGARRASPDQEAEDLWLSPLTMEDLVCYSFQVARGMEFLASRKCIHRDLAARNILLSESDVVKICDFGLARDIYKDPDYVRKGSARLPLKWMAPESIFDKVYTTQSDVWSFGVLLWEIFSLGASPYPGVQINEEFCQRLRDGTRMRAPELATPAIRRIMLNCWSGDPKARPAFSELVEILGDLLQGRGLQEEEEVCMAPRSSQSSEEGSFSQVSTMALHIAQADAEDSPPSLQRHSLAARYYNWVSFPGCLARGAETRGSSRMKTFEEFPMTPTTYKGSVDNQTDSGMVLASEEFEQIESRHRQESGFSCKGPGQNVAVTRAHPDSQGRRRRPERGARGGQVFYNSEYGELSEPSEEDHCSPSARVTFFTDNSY
Chain of Casein kinase II subunit alpha' (Homo sapiens) (P19784 whole entry, looked up): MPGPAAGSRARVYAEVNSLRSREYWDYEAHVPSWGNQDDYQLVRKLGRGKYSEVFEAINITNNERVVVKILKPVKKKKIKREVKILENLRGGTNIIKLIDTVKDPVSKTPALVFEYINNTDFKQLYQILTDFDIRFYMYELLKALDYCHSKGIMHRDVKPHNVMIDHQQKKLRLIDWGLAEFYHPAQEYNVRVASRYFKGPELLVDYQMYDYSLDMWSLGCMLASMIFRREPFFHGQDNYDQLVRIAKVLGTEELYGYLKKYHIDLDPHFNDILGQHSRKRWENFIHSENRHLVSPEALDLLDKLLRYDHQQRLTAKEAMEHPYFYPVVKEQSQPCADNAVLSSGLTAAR
Chain of Atypical kinase COQ8A, mitochondrial (Q8NI60 163-647 limits assumed): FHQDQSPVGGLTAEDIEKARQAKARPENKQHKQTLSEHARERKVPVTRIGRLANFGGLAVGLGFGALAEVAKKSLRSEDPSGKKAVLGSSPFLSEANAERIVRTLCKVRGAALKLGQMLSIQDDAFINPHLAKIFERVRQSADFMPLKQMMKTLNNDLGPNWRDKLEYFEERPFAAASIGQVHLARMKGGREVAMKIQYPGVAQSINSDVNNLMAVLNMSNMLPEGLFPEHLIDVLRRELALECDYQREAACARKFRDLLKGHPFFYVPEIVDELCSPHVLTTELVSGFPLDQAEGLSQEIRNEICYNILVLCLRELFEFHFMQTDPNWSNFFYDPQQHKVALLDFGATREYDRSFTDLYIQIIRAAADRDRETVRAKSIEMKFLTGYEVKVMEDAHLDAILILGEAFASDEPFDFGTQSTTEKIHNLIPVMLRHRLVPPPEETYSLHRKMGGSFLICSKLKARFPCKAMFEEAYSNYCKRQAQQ
Chain of Eukaryotic translation initiation factor 2-alpha kinase 1 (Homo sapiens) (Q9BQI3 whole entry): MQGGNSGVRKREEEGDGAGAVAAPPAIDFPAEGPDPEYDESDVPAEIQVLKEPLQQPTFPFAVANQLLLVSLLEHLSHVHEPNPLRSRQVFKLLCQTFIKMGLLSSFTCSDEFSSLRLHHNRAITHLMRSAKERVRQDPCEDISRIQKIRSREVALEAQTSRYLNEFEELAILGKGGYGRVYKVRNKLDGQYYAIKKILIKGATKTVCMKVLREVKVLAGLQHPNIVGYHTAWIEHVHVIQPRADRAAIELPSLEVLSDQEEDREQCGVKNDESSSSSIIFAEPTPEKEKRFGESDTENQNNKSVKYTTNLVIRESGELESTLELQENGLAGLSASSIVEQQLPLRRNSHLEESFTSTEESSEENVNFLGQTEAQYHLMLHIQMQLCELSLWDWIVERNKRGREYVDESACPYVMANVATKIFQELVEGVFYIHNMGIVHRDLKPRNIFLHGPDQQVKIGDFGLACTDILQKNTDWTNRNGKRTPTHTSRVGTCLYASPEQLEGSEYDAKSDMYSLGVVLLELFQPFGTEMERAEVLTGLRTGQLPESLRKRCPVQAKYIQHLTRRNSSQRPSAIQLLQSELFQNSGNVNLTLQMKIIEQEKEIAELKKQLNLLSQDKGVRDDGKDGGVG

SMILES: COc1cc(N(C)c2ccnc3ccc(C(F)(F)F)cc23)cc(OC)c1OC
- % binding [1]: 43%

SMILES: Nc1cnc(N2CCc3cc(S(=O)(=O)Nc4c(F)cc(Cl)cc4F)cc(N4CCCC4=O)c32)nc1 [TP-020n]
- % of control [2]: 91%

SMILES: CCN(CC)CCCCNc1ncc2cc(-c3cc(OC)cc(OC)c3)c(NC(=O)NC(C)(C)C)nc2n1
- % of control [3]: 100%

SMILES: CC[C@@H]1[C@H](F)C(=O)N[C@@H]1COc1nccc2cc(C(N)=O)c(OC)cc12 [ZIMLOVISERTIB]
- % of inhibition [4]: 6.54%

SMILES: CCC(=O)N1CCN(c2ccc(-n3c(=O)ccc4cnc5ccc(-c6cnc7ccccc7c6)cc5c43)cc2C(F)(F)F)CC1
- % of control [5]: 17%

SMILES: CCc1cccc(CC)c1NC(=O)c1nn(C)c2c1CCc1cnc(Nc3ccc(C(=O)NC4CCN(C)CC4)cc3OC(F)(F)F)nc1-2
- IC50 [6]: > 10 µM

SMILES: CN(C)CCOc1ccc(-c2nc(-c3ccncc3)c(-c3ccc4c(c3)CC/C4=N\O)[nH]2)cc1
- % of control [7]: 100%
- % of control [8]: 58%
- % of control [9]: 74%

SMILES: Cn1cc(-n2cnc3c(NCc4nc5cc(Cl)c(Cl)cc5[nH]4)nc(N4CCOCC4)nc32)cn1
- % of control [10]: -1.17%
